Read-outs that look alike come from different tables or passages of the source.
What was measured:
PARP7 [1] = target: T1, PARP7 (Homo sapiens, UniProt Q7Z3E1); test: Inhibition of the compound on PARP7 protein activity (ADP-ribosylation, chemiluminescence); assay type: biochemical
T1 construct: purchased BPS 80527
T1 sequence (Q7Z3E1 1-657): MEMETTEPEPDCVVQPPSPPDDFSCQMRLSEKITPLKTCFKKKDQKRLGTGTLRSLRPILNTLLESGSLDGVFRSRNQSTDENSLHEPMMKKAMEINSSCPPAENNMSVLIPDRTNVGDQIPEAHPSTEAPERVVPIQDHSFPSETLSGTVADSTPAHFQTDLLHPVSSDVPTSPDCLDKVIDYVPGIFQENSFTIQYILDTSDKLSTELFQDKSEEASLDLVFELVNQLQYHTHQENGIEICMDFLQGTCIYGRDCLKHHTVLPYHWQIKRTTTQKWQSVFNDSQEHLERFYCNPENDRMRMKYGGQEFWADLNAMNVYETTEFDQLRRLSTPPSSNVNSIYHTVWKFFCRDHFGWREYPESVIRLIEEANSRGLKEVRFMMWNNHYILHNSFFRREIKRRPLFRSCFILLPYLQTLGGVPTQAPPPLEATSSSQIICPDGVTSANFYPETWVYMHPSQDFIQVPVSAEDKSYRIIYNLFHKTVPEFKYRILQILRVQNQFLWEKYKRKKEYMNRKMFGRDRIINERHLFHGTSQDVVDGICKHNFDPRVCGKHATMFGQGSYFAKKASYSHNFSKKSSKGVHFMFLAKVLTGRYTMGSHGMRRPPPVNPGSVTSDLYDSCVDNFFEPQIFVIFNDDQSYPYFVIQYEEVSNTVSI

NCI-H1373 cells = test: Inhibition on NCI-H1373 cell proliferation (Cell-Titer-Glo); assay type: cell-based; settings: Homo sapiens, 144 h; NCI-H1373 cells, incubation for 6 days, Cell-Titer-Glo; read-out: NCI-H1373 cell proliferation inhibition IC50
PARP7 [2] = target: T1, PARP7; test: PARP7 TR-FRET binding inhibition (displacement of probe RBN011147)
Procedure: The ability of the compound to substitute the probe RBN011147 (Wigle et al., 2020, Cell Chemical Biology 27, 877-887) was tested by a TR-FRET method, and IC50 was calculated to evaluate the binding ability of the compound to PARP7. […]

PARP1 = PARP1 (Homo sapiens, UniProt P09874); test: PARP1 in vitro enzyme activity inhibition (chemiluminescence assay); assay type: biochemical
Procedure: (§1) Following the method in test example 1, the IC50 value of the inhibition of each compound on PARP7 activity were detected and obtained. Reference was made to the method in test example 1, except that the 6.25 nM of PARP7 solution in the ribosylation reaction step was replaced with a 5 nM of PARP1 solution or a 5 nM of PARP2. Similar to the 6.25 nM of PARP7 solution, the 5 nM of PARP1 solution and 5 nM of PARP2 solution were also formulated and obtained by using 1× Assay buffer.

PARP2 = PARP2 (Homo sapiens, UniProt Q9UGN5); test: PARP2 in vitro enzyme activity inhibition (chemiluminescence assay); assay type: biochemical
Procedure: as §1

PARP7 [3] = target: T1, PARP7; test: PARP7 in vitro enzyme activity inhibition (chemiluminescence assay, selectivity test); assay type: biochemical
Procedure: as §1

[4] = Histone H1 coated plate, Biotin-Labeled NAD+, 2 h at room temperature, chemiluminescence; read-out: PARP7 activity inhibition IC50
[5] = TR-FRET, Biotin-labeled probe RBN011147; read-out: PARP7 binding inhibition IC50
[6] = 5 nM of PARP1 solution, method of test example 1; read-out: PARP1 activity inhibition IC50
[7] = 5 nM of PARP2, method of test example 1; read-out: PARP2 activity inhibition IC50
[8] = 6.25 nM of PARP7 solution, method of test example 1; read-out: PARP7 activity inhibition IC50

Chain of PARP2 (Q9UGN5 whole entry, species assumed): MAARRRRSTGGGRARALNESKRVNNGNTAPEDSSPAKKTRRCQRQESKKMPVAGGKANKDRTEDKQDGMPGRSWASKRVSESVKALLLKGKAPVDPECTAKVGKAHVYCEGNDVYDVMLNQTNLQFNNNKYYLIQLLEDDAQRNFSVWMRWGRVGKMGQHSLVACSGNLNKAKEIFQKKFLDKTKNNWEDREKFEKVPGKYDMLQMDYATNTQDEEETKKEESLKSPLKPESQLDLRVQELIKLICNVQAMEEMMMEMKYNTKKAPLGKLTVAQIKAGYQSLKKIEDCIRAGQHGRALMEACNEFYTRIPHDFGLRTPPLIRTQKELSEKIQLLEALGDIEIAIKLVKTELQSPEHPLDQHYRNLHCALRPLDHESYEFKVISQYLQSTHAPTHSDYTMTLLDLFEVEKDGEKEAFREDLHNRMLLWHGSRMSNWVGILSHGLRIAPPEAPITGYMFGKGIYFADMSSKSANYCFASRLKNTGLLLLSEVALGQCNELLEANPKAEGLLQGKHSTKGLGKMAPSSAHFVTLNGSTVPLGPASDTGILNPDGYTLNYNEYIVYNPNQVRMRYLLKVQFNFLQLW
Chain of PARP1 (P09874 whole entry, species assumed): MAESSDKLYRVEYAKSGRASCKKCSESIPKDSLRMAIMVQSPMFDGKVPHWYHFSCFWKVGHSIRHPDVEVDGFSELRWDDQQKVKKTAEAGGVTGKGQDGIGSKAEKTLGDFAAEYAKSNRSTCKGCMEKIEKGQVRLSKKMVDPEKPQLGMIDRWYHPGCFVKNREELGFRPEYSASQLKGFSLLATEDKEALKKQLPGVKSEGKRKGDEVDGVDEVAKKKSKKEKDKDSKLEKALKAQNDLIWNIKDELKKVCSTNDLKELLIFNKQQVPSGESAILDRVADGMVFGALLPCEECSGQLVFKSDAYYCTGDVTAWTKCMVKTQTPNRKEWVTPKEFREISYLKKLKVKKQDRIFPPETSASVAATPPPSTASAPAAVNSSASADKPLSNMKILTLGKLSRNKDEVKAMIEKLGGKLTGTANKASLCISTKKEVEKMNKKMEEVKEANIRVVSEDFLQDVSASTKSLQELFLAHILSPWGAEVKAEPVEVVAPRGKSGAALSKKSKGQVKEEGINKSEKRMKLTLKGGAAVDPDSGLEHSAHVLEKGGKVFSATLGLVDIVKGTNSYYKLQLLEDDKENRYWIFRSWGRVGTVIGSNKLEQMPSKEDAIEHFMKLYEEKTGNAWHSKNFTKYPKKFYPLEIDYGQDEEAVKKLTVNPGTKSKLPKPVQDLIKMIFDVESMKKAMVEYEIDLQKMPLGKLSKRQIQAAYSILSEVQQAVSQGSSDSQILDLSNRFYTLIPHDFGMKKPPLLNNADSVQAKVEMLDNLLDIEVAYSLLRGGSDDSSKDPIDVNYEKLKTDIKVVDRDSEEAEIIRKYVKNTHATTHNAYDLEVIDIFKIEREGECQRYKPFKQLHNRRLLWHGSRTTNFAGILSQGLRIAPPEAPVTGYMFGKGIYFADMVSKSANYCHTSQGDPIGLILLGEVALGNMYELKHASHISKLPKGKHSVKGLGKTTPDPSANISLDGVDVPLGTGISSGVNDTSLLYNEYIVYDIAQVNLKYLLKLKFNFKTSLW

Compound	IC50 (PARP7 [1]; [4]) [nM]	IC50 (NCI-H1373 cells) [nM]	IC50 (PARP7 [2]; [5]) [nM]	IC50 (PARP1; [6]) [nM]	IC50 (PARP2; [7]) [nM]	IC50 (PARP7 [3]; [8]) [nM]	IC50 (PARP7 [1]; read-out: PARP7 activity inhibition IC50; Histone H1 coated plate, Biotin-Labeled NAD+, 2 h at room temperature, chemiluminescence) [nM]	IC50 (PARP7 [2]; read-out: PARP7 binding inhibition IC50; TR-FRET, Biotin-labeled probe RBN011147) [nM]	IC50 (PARP1; read-out: PARP1 activity inhibition IC50; 5 nM of PARP1 solution, method of test example 1) [nM]	IC50 (PARP2; read-out: PARP2 activity inhibition IC50; 5 nM of PARP2, method of test example 1) [nM]	IC50 (PARP7 [3]; read-out: PARP7 activity inhibition IC50; 6.25 nM of PARP7 solution, method of test example 1) [nM]
CC(CCCNC(=O)c1cnc(-c2ncc(C(F)(F)F)cn2)cn1)Nc1cn[nH]c(=O)c1C(F)(F)F (stereo not drawn) [Example 4]	< 3	300 to 1000	< 10	30 to 100	3 to 10	< 3					
Cc1c(CCC(=O)Nc2ccc(-c3ncc(C(F)(F)F)cn3)cc2)c[nH]c(=O)c1C(F)(F)F [Example 10]	< 3	1000 to 3000	< 10	3 to 10	3 to 10	< 3					
O=C(CCc1c[nH]c(=O)c(C(F)(F)F)c1N1CC2(CCC2)C1)Nc1ccc(-c2ncc(C(F)(F)F)s2)cn1 [Example 69]	< 3	> 3000	< 10	> 100	> 100	< 3					
O=C(CCc1c[nH]c(=O)c(C(F)(F)F)c1N1CC2(CCC2)C1)Nc1ccc(-c2ncc(C(F)(F)F)cn2)cn1 [Example 70]		> 3000					3 to 10	< 10	> 100	> 100	3 to 10
O=C(NCCc1n[nH]c(=O)c(C(F)(F)F)c1N1CC2(CCC2)C1)c1cnc(-c2ncc(C(F)(F)F)cn2)cn1 [Example 166]	3 to 10	> 3000	> 100	> 100	> 100	3 to 10					
CC(CCCNC(=O)c1ccc(-c2cc(C(F)(F)F)n(C)n2)cc1)Nc1cn[nH]c(=O)c1C(F)(F)F (stereo not drawn) [Example 185]	< 3	300 to 1000	30 to 100								
CC(CCCNC(=O)c1ccc(-c2noc(C3CC3)n2)cc1)Nc1cn[nH]c(=O)c1C(F)(F)F (stereo not drawn) [Example 186]	< 3	1000 to 3000	10 to 30								
CC(CCCNC(=O)c1ccc(-c2ccc(-c3cnco3)cn2)cc1)Nc1cn[nH]c(=O)c1C(F)(F)F (stereo not drawn) [Example 188]	< 3	> 3000	10 to 30								
Cc1nc(-c2ccc(C(=O)NCCCC(C)Nc3cn[nH]c(=O)c3C(F)(F)F)cc2)sc1C (stereo not drawn) [Example 189]	< 3	1000 to 3000	30 to 100								
CC(CCCNC(=O)c1ccc(-c2nn(C)cc2F)cc1)Nc1cn[nH]c(=O)c1C(F)(F)F (stereo not drawn) [Example 192]	3 to 10	> 3000	30 to 100								
CC(CCCNC(=O)c1cnc(-c2cc(C(F)(F)F)sn2)c(F)c1)Nc1cn[nH]c(=O)c1C(F)(F)F (stereo not drawn) [Example 205]	< 3	300 to 1000	< 10								
CC(CCCNC(=O)c1ccc(-n2cc(C(F)(F)F)cn2)nc1)Nc1cn[nH]c(=O)c1C(F)(F)F (stereo not drawn) [Example 206]	< 3	1000 to 3000	< 10								
CC(CCCNC(=O)c1ccc(-c2cc(C(F)(F)F)sn2)nc1)Nc1cn[nH]c(=O)c1C(F)(F)F (stereo not drawn) [Example 207]	< 3	1000 to 3000	10 to 30								
CC(CCCNC(=O)c1ccc(-c2ncc(C(F)(F)F)s2)cn1)Nc1cn[nH]c(=O)c1C(F)(F)F (stereo not drawn) [Example 209]	< 3	< 300	10 to 30								
CC(CCCNC(=O)c1ccc(-c2ncc(C(F)(F)F)s2)nc1)Nc1cn[nH]c(=O)c1C(F)(F)F (stereo not drawn) [Example 211]	< 3	1000 to 3000	< 10								
CC(CCCNC(=O)c1ccc(-c2cc(C(F)(F)F)sn2)cc1F)Nc1cn[nH]c(=O)c1C(F)(F)F (stereo not drawn) [Example 212]	< 3	< 300	< 10								

Further lines, with some results ahead:

IC50 (PARP7 [1]; [4]) [nM]	IC50 (NCI-H1373 cells) [nM]	IC50 (PARP7 [2]; [5]) [nM]	IC50 (PARP1; [6]) [nM]	IC50 (PARP2; [7]) [nM]	IC50 (PARP7 [3]; [8]) [nM]	Compound	IC50 (PARP7 [1]; read-out: PARP7 activity inhibition IC50; Histone H1 coated plate, Biotin-Labeled NAD+, 2 h at room temperature, chemiluminescence) [nM]	IC50 (PARP7 [2]; read-out: PARP7 binding inhibition IC50; TR-FRET, Biotin-labeled probe RBN011147) [nM]	IC50 (PARP1; read-out: PARP1 activity inhibition IC50; 5 nM of PARP1 solution, method of test example 1) [nM]	IC50 (PARP2; read-out: PARP2 activity inhibition IC50; 5 nM of PARP2, method of test example 1) [nM]	IC50 (PARP7 [3]; read-out: PARP7 activity inhibition IC50; 6.25 nM of PARP7 solution, method of test example 1) [nM]
< 3	< 300	< 10	10 to 30	< 3	< 3	CC(CCCNC(=O)c1ccc(-c2ncc(C(F)(F)F)s2)cc1)Nc1cn[nH]c(=O)c1C(F)(F)F (stereo not drawn) [Example 17]					
< 3	300 to 1000	10 to 30	> 100	10 to 30	< 3	O=C(NCCCC(Nc1cn[nH]c(=O)c1C(F)(F)F)C(=O)N1CCCC1)c1ccc(-c2ncc(C(F)(F)F)cn2)cc1 (stereo not drawn) [Example 84]					
< 3	300 to 1000	< 10	30 to 100	3 to 10	< 3	CC1(C)CN(C(=O)C(CCCNC(=O)c2ccc(-c3ncc(C(F)(F)F)s3)cc2)Nc2cn[nH]c(=O)c2C(F)(F)F)C1 (stereo not drawn) [Example 85]					
< 3	< 300	< 10	10 to 30	3 to 10	< 3	O=C(NCCCC(Nc1cn[nH]c(=O)c1C(F)(F)F)C(=O)N1CCCC1)c1ccc(-c2ncc(C(F)(F)F)s2)cc1 (stereo not drawn) [Example 86]					
< 3	< 300	10 to 30	30 to 100	10 to 30	< 3	O=C(NCCCC(Nc1cn[nH]c(=O)c1C(F)(F)F)C(=O)N1CC2(CCC2)C1)c1cnc(-c2ncc(C(F)(F)F)cn2)cn1 (stereo not drawn) [Example 87]					
< 3	300 to 1000	< 10	30 to 100	3 to 10	< 3	O=C(NCCCC(Nc1cn[nH]c(=O)c1C(F)(F)F)C(=O)N1CCOCC1)c1ccc(-c2ncc(C(F)(F)F)s2)cc1 (stereo not drawn) [Example 88]					
< 3	300 to 1000	< 10	30 to 100	10 to 30	< 3	O=C(NCCCC(Nc1cn[nH]c(=O)c1C(F)(F)F)C(=O)N1CCCC1)c1cnc(-c2ncc(C(F)(F)F)cn2)cn1 (stereo not drawn) [Example 89]					
< 3	> 3000	30 to 100	30 to 100	30 to 100	< 3	O=C(NCCCC(Nc1cn[nH]c(=O)c1C(F)(F)F)C(=O)N1CCOCC1)c1cnc(-c2ncc(C(F)(F)F)cn2)cn1 (stereo not drawn) [Example 90]					
3 to 10	> 3000	10 to 30	30 to 100	3 to 10	3 to 10	CC1(C)CN(C(=O)C(CCCNC(=O)c2cnc(-c3ncc(C(F)(F)F)cn3)cn2)Nc2cn[nH]c(=O)c2C(F)(F)F)C1 (stereo not drawn) [Example 174]					
< 3	< 300	< 10	> 100	3 to 10	< 3	CC(C)(C)NC(=O)[C@@H](CCCNC(=O)c1ccc(-c2ncc(C(F)(F)F)s2)cc1)Nc1cn[nH]c(=O)c1C(F)(F)F [Example 221]					
< 3	< 300	< 10	10 to 30	< 3	< 3	O=C(NCCC[C@@H](Nc1cn[nH]c(=O)c1C(F)(F)F)C(=O)N1CC[C@@H](F)C1)c1ccc(-c2ncc(C(F)(F)F)s2)cc1 [Example 222]					
3 to 10	< 300	< 10	3 to 10	30 to 100	3 to 10	CN(C(=O)[C@@H](CCCNC(=O)c1ccc(-c2ncc(C(F)(F)F)s2)cc1)Nc1cn[nH]c(=O)c1C(F)(F)F)C1CC1 [Example 223]					
< 3	< 300	< 10	3 to 10	10 to 30	< 3	O=C(NCCC[C@@H](Nc1cn[nH]c(=O)c1C(F)(F)F)C(=O)N1CC(Cl)C1)c1ccc(-c2ncc(C(F)(F)F)s2)cc1 [Example 224]					
10 to 30	> 3000	> 100				CC(CCCNC(=O)c1ccc(-c2cc(C(F)(F)F)nn2C)cc1)Nc1cn[nH]c(=O)c1C(F)(F)F (stereo not drawn) [Example 245]					
